Key:
lacewings = assay: Foliar spray trial on Bollgard II cotton, Norwood 2010-11 (Example 7): lacewings; assay type: in vivo, Chrysopa spp., Micromus tasmaniae; details: fipronil 62.5 mL/ha; for number of lacewings per meter: 1st spray, BC 667/DAT 511 0.50 L/ha; for number of lacewings per metre: 2nd spray, BC 667/DAT 511 0.5 L/ha
Protocol: The trial was conducted on commercial Bollgard II® cotton crops at Norwood near Moree, NSW from 5 Dec. 2010 to 19 Feb. 2011. The cotton was at the early squaring stage, when it was attractive to green mirids (Khan et al. 2004).
The study evaluated the efficacy of the following treatments against green mirids, green vegetable bugs and predatory insects: • 1. 500 mL/ha BC 667 spore in oil (1×10^7 spores/ml); • 2. 500 mL/ha DAT 511 spore in oil (1×10^7 spores/ml); • 3. 62.5 mL/ha Fipronil (conventional insecticide); and • 4. Unsprayed (control).
The treatment plots were arranged in a randomized complete block design with four replicates per treatment. Each replicated plot measured 0.5 ha. Foliar application of each treatment was made on 18 Jan. 2011 using a ground spray rig fitted with flat fan nozzles to achieve a droplet size of 80 250 μm. The treatment was applied in the mornings when temperature was between 20° C. and 28° C. The timing of treatment was based on an economic threshold of 0.5 green mirids per metre, the IPM guideline and recommendation by CottonLogic.
Pre-treatment counts of green mirid adults and nymphs, predatory beetles, predatory bugs, predatory lacewings and spiders were made by visual inspection of whole cotton plants. Both adults and nymphs of the beneficial insects were counted. Plants were assessed in randomly selected one-metre lengths of row of each treatment replicate (i.e. four metres per treatment). In all, two spray applications of each treatment were made. The first spray was made on 18 Jan. 2011. Post-treatment counts of the first spray application were taken 3, 7 and 14 days after treatment (DAT) (first spray). A second spray application was done on 1 Feb. 2011 when green mirid adults plus nymphs reached the threshold of 0.5 per metre. Post-treatment counts of the second spray application were taken 3, 7, 14, 21 and 28 DAT. Data are expressed as numbers of individuals of that species counted per metre for each treatment.

spiders = assay: Rate trial on conventional cotton refuge crops, Undabri 2012 (Example 12): spiders; assay type: in vivo, Lycosa spp., Oxyopes spp., Salticidae spp., Araneus spp.; details: DAT 511 250 mL/ha, 500 mL/ha and 1.0 L/ha; fipronil 62.5 mL/ha
Protocol: This trial was conducted using commercial conventional cotton refuge crops at Undabri in Goondiwindi (28° 55'S, 150° 31′E) from 14 Feb. to 6 Mar. 2012.
The efficacy of the following treatments against green mirids, green vegetable bugs and predatory insects was assessed: • 1. 250 mL/ha DAT 511 spore in oil (1×10^7 spores/ml); • 2. 500 mL/ha DAT 511 spore in oil (1×10^7 spores/ml); • 3. 1 L/ha DAT 511 spore in oil (1×10^7 spores/ml); • 4. 62.5 mL/ha fipronil; and • 5. Unsprayed (negative control).
The plots were arranged in a randomized complete block design with three replicates per treatment. Each replicated plot measured 8 m (8 rows) wide and 250 m long.
Foliar applications of each treatment were made on 14 Feb. 2012 using a ground spray rig fitted with flat fan nozzles to achieve a droplet size of 200 μm. All insecticide formulations were water miscible. All treatments were applied using a spray volume of 100 L/ha. The untreated (negative control) plot was left unsprayed and the plot treated with synthetic insecticide received two applications similar to, and on the same date as, the plots treated with the fungus.
For each replicate, visual counts of adults and nymphs of green mirids, green vegetable bugs (GVB), apple dimpling bugs and predatory insects on whole cotton plants were made in a randomly selected 1 m length of row of cotton plants (i.e. 6 m per treatment). […]

predatory beetles = assay: Bollgard II cotton, Auscott-Togo 2012-13, Field 77 (Experiment 1): predatory beetles; assay type: in vivo, Coleoptera (Coccinellidae, Melyridae); details: 62.5 mL/ha
Protocol: (§1) Two separate trials (Experiment 1 in Field 77; Experiment 2 in Field 63) were conducted in Bollgard II cotton crops on a commercial cotton farm at Auscott-Togo near Narrabri, New South Wales from 11 Feb. to 5 Mar. 2013 (Field 77) and 19 Feb. to 6 Mar. 2013 (Field 63). The cotton used for each of the trials was at the late squaring to pod setting and maturation stages which was fairly attractive to green mirids.
(§2) In both trials, the efficacy of the following treatments against green mirids and predatory insects was evaluated: • 1. 250 mL/ha DAT 511 spore in oil (1×10^7 spores/ml); • 2. 500 mL/ha DAT 511 spore in oil (1×10^7 spores/ml); • 3. 1 L/ha DAT 511 spore in oil (1×10^7 spores/ml); • 4. 62.5 mL/ha of fipronil; and • 5. Unsprayed (negative control).
(§3) The treatment plots were arranged in a randomized complete block design with six replicates per treatment. Each replicated plot measured 40 m wide (40 rows) and 90 m long.
(§4) Foliar application of each treatment was made on 28 Feb. (for both green mirids and beneficial insects) and 13 Mar. 2012 (for beneficial insects alone) using a ground spray rig fitted with flat fan nozzles to achieve a droplet size of 200 μm. The treatment was applied during the mornings when temperatures were between 20° C. and 28° C. The timing of treatment was based on the IPM Guidelines and recommendations by CottonLogic to use an economic threshold of 0.5 green mirids per metre (Deutscher and Wilson 1999; Khan et al. 2004).
(§5) Pre-treatment counts of green mirid adults and nymphs, predatory beetles, predatory bugs, predatory lacewings and spiders were made by visual inspection of whole cotton plants. Both adults and nymphs of beneficial insects were counted. Plants were assessed in randomly selected one-metre lengths of row of each replicate (i.e. 6 m per treatment). Post-treatment counts were made 3, 7, 14 and 21 days after treatment. Data are expressed as numbers of green mirid adults and nymphs counted per metre for each treatment.

[1] = test system: green mirid adults and nymphs; assay: Bollgard II cotton, Auscott-Togo 2012-13, Field 63 (Experiment 2): green mirids; assay type: in vivo, Creontiades dilutus; details: 62.5 mL/ha
Protocol: as §1, §2, §3, §4, §5

Structure (SMILES): N#Cc1nn(-c2c(Cl)cc(C(F)(F)F)cc2Cl)c(N)c1[S+]([O-])C(F)(F)F (stereo not drawn) [fipronil]
- number of lacewings per meter (lacewings; 3 DAT): 0.00 ± 0.00 a per meter
- number of lacewings per meter (lacewings; 7 DAT): 0.00 ± 0.00 a per meter
- number of lacewings per meter (lacewings; 14 DAT): 0.33 ± 0.33 a per meter
- number of lacewings per meter (lacewings; pre-spray counts 18 Jan. 2011): 0.67 ± 0.33 a per meter
- number of lacewings per metre (lacewings; 3 DAT): 0.33 ± 0.33a per metre
- number of lacewings per metre (lacewings; 7 DAT): 0.67 ± 0.33a per metre
- number of lacewings per metre (lacewings; 14 DAT): 0.67 ± 0.33a per metre
- number of lacewings per metre (lacewings; 21 DAT): 1.67 ± 0.33a per metre
- number of lacewings per metre (lacewings; 28 DAT): 1.33 ± 0.33a per metre
- number of lacewings per metre (lacewings; pre-spray counts 1 Feb. 2011): 0.33 ± 0.33a per metre
- effect on number of spiders per metre (spiders): significantly lower
- No. predatory beetles per meter (predatory beetles; 3 DAT): 1.33 ± 0.33 a per meter
- No. predatory beetles per meter (predatory beetles; 7 DAT): 1.33 ± 0.33 a per meter
- No. predatory beetles per meter (predatory beetles; 14 DAT): 1.00 ± 0.58 a per meter
- No. predatory beetles per meter (predatory beetles; 21 DAT): 1.33 ± 0.33 b per meter
- No. predatory beetles per meter (predatory beetles; pre-spray counts): 3.68 ± 0.33 a per meter
- No. green mirid adults and nymphs per meter ([1]; 3 DAT): 0.33 ± 0.33 a per meter
- No. green mirid adults and nymphs per meter ([1]; 7 DAT): 0.00 ± 0.00 a per meter
- No. green mirid adults and nymphs per meter ([1]; 14 DAT): 0.33 ± 0.33 a per meter
- No. green mirid adults and nymphs per meter ([1]; 21 DAT): 0.00 ± 0.00 a per meter
- No. green mirid adults and nymphs per meter ([1]; pre-spray counts): 1.67 ± 0.33 a per meter
